The test deals with CD2F1 mice, L1210 leukemia ip, survival T/C. Briefly: NCI In Vivo Anticancer Drug Screen. Data for tumor model L1210 Leukemia (intraperitoneal) in CD2F1 (CDF1) mice. The settings on record: higher = longer survival. Put shortly:
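Transplantable tumor in mice; compound-treated vs vehicle-treated groups. Read-out = treated/control ratio of the measured endpoint.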

Setting [1] is: endpoint: mean survival time, dose: 100.0 mg/kg/injection, schedule: Q04DX003 (ip), vehicle: Klucel (hydroxypropylcellulose) (HPC).
Setting [2] is: endpoint: mean survival time, dose: 200.0 mg/kg/injection, schedule: Q04DX003 (ip), vehicle: Klucel (hydroxypropylcellulose) (HPC).
Where [3] appears, read: endpoint: mean survival time, dose: 100.0 mg/kg/injection, schedule: Q04DX003 (ip), vehicle: saline with Tween-80.
Setting [4] is: endpoint: mean survival time, dose: 200.0 mg/kg/injection, schedule: Q04DX003 (ip), vehicle: saline with Tween-80.
The mark [5] stands for this setting: endpoint: mean survival time, dose: 400.0 mg/kg/injection, schedule: Q04DX003 (ip), vehicle: saline with Tween-80.
Setting [6] is: endpoint: mean survival time, dose: 100.0 mg/kg/injection, schedule: Q01DX009 (ip), vehicle: saline with Tween-80.
[7] abbreviates: endpoint: mean survival time, dose: 200.0 mg/kg/injection, schedule: Q01DX009 (ip), vehicle: saline with Tween-80.
Setting [8] is: endpoint: mean survival time, dose: 400.0 mg/kg/injection, schedule: Q01DX009 (ip), vehicle: saline with Tween-80.
The mark [9] stands for this setting: endpoint: mean survival time, dose: 50.0 mg/kg/injection, schedule: Q01DX009 (ip), vehicle: Klucel (hydroxypropylcellulose) (HPC).
The mark [10] stands for this setting: endpoint: mean survival time, dose: 100.0 mg/kg/injection, schedule: Q01DX001 (ip), vehicle: saline with Tween-80.
The mark [11] stands for this setting: endpoint: mean survival time, dose: 200.0 mg/kg/injection, schedule: Q01DX001 (ip), vehicle: saline with Tween-80.

“And” between values parts separate entries of the source, which are not always exact repeats. Equal values may be shown once. Toxic doses and inconclusive results are not listed.

As for `Nc1cc(Cl)c2[nH]cnc2n1`, the T/C reads like this: (endpoint: mean survival time, dose: 6.25 mg/kg/injection, schedule: Q01DX009 (ip), vehicle: distilled water + Tween-80) 107 % of control; (endpoint: mean survival time, dose: 6.25 mg/kg/injection, schedule: Q01DX009 (ip), vehicle: water) 102 % of control; (endpoint: mean survival time, dose: 12.5 mg/kg/injection, schedule: Q01DX009 (ip), vehicle: distilled water + Tween-80) 120 % of control; (endpoint: mean survival time, dose: 12.5 mg/kg/injection, schedule: Q01DX009 (ip), vehicle: water) 113 % of control; (endpoint: mean survival time, dose: 25.0 mg/kg/injection, schedule: Q01DX009 (ip), vehicle: distilled water + Tween-80) 150 % of control; (endpoint: mean survival time, dose: 50.0 mg/kg/injection, schedule: Q01DX009 (ip), vehicle: distilled water + Tween-80) 150 % of control and 164 % of control. Besides, the T/C reads like this: (endpoint: mean survival time, dose: 50.0 mg/kg/injection, schedule: Q04DX003 (ip), vehicle: Klucel (hydroxypropylcellulose) (HPC)) 118 % of control and 110 % of control; (endpoint: mean survival time, dose: 85.0 mg/kg/injection, schedule: Q04DX003 (ip), vehicle: saline with Tween-80) 108 % of control; (endpoint: mean survival time, dose: 100.0 mg/kg/injection, schedule: Q01DX009 (ip), vehicle: distilled water + Tween-80) 151 % of control and 185 % of control; under setting [1], 115 % of control and 109 % of control; (endpoint: mean survival time, dose: 200.0 mg/kg/injection, schedule: Q01DX009 (ip), vehicle: distilled water + Tween-80) 153 % of control and 228 % of control; under setting [2], 108 % of control. In addition, the T/C was 120 % of control and 109 % of control (endpoint: mean survival time, dose: 300.0 mg/kg/injection, schedule: Q04DX003 (ip), vehicle: Klucel (hydroxypropylcellulose) (HPC)); 100 % of control (endpoint: mean survival time, dose: 400.0 mg/kg/injection, schedule: Q01DX009 (ip), vehicle: distilled water + Tween-80); 108 % of control (endpoint: median survival time, dose: 6.0 mg/kg/injection, schedule: Q01DX009 (ip), vehicle: Klucel (hydroxypropylcellulose) (HPC)); 119 % of control (endpoint: median survival time, dose: 12.0 mg/kg/injection, schedule: Q01DX009 (ip), vehicle: Klucel (hydroxypropylcellulose) (HPC)); 120 % of control (endpoint: median survival time, dose: 25.0 mg/kg/injection, schedule: Q01DX005 (ip), vehicle: saline with Tween-80); 152 % of control (endpoint: median survival time, dose: 25.0 mg/kg/injection, schedule: Q01DX009 (ip), vehicle: Klucel (hydroxypropylcellulose) (HPC)). In addition, the T/C was 153 % of control (endpoint: median survival time, dose: 25.0 mg/kg/injection, schedule: Q01DX009 (ip), vehicle: saline with Tween-80); 172 % of control (endpoint: median survival time, dose: 50.0 mg/kg/injection, schedule: Q01DX009 (ip), vehicle: Klucel (hydroxypropylcellulose) (HPC)); 188 % of control (endpoint: median survival time, dose: 50.0 mg/kg/injection, schedule: Q01DX009 (ip), vehicle: saline with Tween-80); 161 % of control (endpoint: median survival time, dose: 100.0 mg/kg/injection, schedule: Q01DX005 (ip), vehicle: saline with Tween-80); 178 % of control (endpoint: median survival time, dose: 100.0 mg/kg/injection, schedule: Q01DX009 (ip), vehicle: Klucel (hydroxypropylcellulose) (HPC)); 160 % of control (endpoint: median survival time, dose: 100.0 mg/kg/injection, schedule: Q01DX009 (ip), vehicle: saline with Tween-80). Further, under “endpoint: median survival time, dose: 200.0 mg/kg/injection, schedule: Q01DX005 (ip), vehicle: saline with Tween-80”, the T/C was 159 % of control.

On to `CCCCCCCCCCCC[NH-].CCCCCCCCCCCC[NH-].[Cl][Pt+2][Cl]`, for which the T/C is, setting by setting: (endpoint: mean survival time, dose: 6.25 mg/kg/injection, schedule: Q04DX003 (ip), vehicle: saline + alcohol) 111 % of control; (endpoint: mean survival time, dose: 12.5 mg/kg/injection, schedule: Q04DX003 (ip), vehicle: saline + alcohol) 95 % of control; (endpoint: mean survival time, dose: 25.0 mg/kg/injection, schedule: Q04DX003 (ip), vehicle: saline + alcohol) 100 % of control; (endpoint: mean survival time, dose: 50.0 mg/kg/injection, schedule: Q04DX003 (ip), vehicle: saline + alcohol) 103 % of control; (endpoint: mean survival time, dose: 100.0 mg/kg/injection, schedule: Q04DX003 (ip), vehicle: saline + alcohol) 100 % of control.

For `CC(=O)NC(Cc1ccc(N(CCCl)CCCl)cc1)C(=O)O` (centres undefined), the T/C is 97 % of control (endpoint: mean survival time, dose: 3.12 mg/kg/injection, schedule: Q01DX009 (ip), vehicle: saline); 105 % of control (endpoint: mean survival time, dose: 6.25 mg/kg/injection, schedule: Q01DX009 (ip), vehicle: saline); 118 % of control (endpoint: mean survival time, dose: 12.5 mg/kg/injection, schedule: Q01DX009 (ip), vehicle: saline).

Turning to `Cn1c(=O)[nH]c2nc(-c3ccccc3)[nH]c2c1=O`, the T/C was 89 % of control (endpoint: mean survival time, dose: 12.5 mg/kg/injection, schedule: Q01DX005 (ip), vehicle: other); 87 % of control (endpoint: mean survival time, dose: 25.0 mg/kg/injection, schedule: Q01DX005 (ip), vehicle: other); 86 % of control (endpoint: mean survival time, dose: 50.0 mg/kg/injection, schedule: Q01DX005 (ip), vehicle: other); 86 % of control (endpoint: mean survival time, dose: 100.0 mg/kg/injection, schedule: Q01DX005 (ip), vehicle: other); 87 % of control (endpoint: mean survival time, dose: 200.0 mg/kg/injection, schedule: Q01DX005 (ip), vehicle: other).

Take `CN(C)NC(=O)CC(NCc1ccccc1)C(=O)O` (centres undefined): the T/C under setting [3] was 102 % of control, the T/C under setting [4] is 101 % of control and the T/C under setting [5] was 98 % of control.

For the compound `CC(=O)OCC1OC(OC2C(COC(C)=O)OC(Sc3ccccc3)C(OC(C)=O)C2OC(C)=O)C(OC(C)=O)C(OC(C)=O)C1OC(C)=O` (centres undefined), the T/C is, setting by setting: (endpoint: mean survival time, dose: 0.78 mg/kg/injection, schedule: Q01DX009 (ip), vehicle: saline with Tween-80) 105 % of control; (endpoint: mean survival time, dose: 1.56 mg/kg/injection, schedule: Q01DX009 (ip), vehicle: saline with Tween-80) 101 % of control; (endpoint: mean survival time, dose: 3.13 mg/kg/injection, schedule: Q01DX009 (ip), vehicle: saline with Tween-80) 101 % of control; under setting [6], 95 % of control; under setting [7], 98 % of control; under setting [8], 93 % of control.

For `CCN(CC)c1ccc(-c2nc3ccccc3s2)cc1`, the T/C runs as follows: under setting [9], 106 % of control; (endpoint: mean survival time, dose: 100.0 mg/kg/injection, schedule: Q01DX009 (ip), vehicle: Klucel (hydroxypropylcellulose) (HPC)) 98 % of control; (endpoint: mean survival time, dose: 200.0 mg/kg/injection, schedule: Q01DX009 (ip), vehicle: Klucel (hydroxypropylcellulose) (HPC)) 102 % of control.

Turning to `CSc1cc(C)c(O)c(CO)c1`, the T/C (endpoint: mean survival time, dose: 100.0 mg/kg/injection, schedule: Q04DX003 (ip), vehicle: other) was 104 % of control; the T/C (endpoint: mean survival time, dose: 200.0 mg/kg/injection, schedule: Q04DX003 (ip), vehicle: other) is 98 % of control; the T/C (endpoint: mean survival time, dose: 400.0 mg/kg/injection, schedule: Q04DX003 (ip), vehicle: other) was 100 % of control.

For the compound `COCCNc1ccc([N+](=O)[O-])cc1[N+](=O)[O-]`, the T/C is 92 % of control under setting [10]; 95 % of control under setting [6]; 92 % of control under setting [11]; 93 % of control under setting [7]; 96 % of control (endpoint: mean survival time, dose: 400.0 mg/kg/injection, schedule: Q01DX001 (ip), vehicle: saline with Tween-80); 91 % of control under setting [8].

As to `Oc1ccc2ccccc2c1/C=N/N=C/c1c(O)ccc2ccccc12`, the T/C by setting is: (endpoint: mean survival time, dose: 12.5 mg/kg/injection, schedule: Q01DX009 (ip), vehicle: Klucel (hydroxypropylcellulose) (HPC)) 100 % of control; (endpoint: mean survival time, dose: 25.0 mg/kg/injection, schedule: Q01DX009 (ip), vehicle: Klucel (hydroxypropylcellulose) (HPC)) 96 % of control; under setting [9], 104 % of control.

`O=C1NC(=O)C([N+](=O)[O-])=C(O)C1=O`: the T/C by setting is: (endpoint: mean survival time, dose: 50.0 mg/kg/injection, schedule: Q01DX009 (ip), vehicle: saline) 102 % of control; (endpoint: mean survival time, dose: 100.0 mg/kg/injection, schedule: Q01DX009 (ip), vehicle: saline) 93 % of control; (endpoint: mean survival time, dose: 200.0 mg/kg/injection, schedule: Q01DX009 (ip), vehicle: saline) 90 % of control.

With `C(=N\Nc1nc2ccccc2s1)/c1ccccc1`, the T/C reads like this: under setting [1], 100 % of control; under setting [2], 105 % of control; (endpoint: mean survival time, dose: 400.0 mg/kg/injection, schedule: Q04DX003 (ip), vehicle: Klucel (hydroxypropylcellulose) (HPC)) 92 % of control.

Take `c1ccc2c(c1)OCC(CN1CCc3[nH]c4ccccc4c3C1)O2` (centres undefined): the T/C reads like this: (endpoint: mean survival time, dose: 50.0 mg/kg/injection, schedule: Q01DX001 (ip), vehicle: saline with Tween-80) 106 % of control; under setting [10], 98 % of control; under setting [11], 93 % of control.

Turning to `Cc1c(Cl)cccc1NS(=O)(=O)c1cccc([N+](=O)[O-])c1`, the T/C under setting [3] is 88 % of control, the T/C under setting [4] was 92 % of control and the T/C under setting [5] is 86 % of control.

Values taken from PubChem BioAssay AID256 (DTP/NCI, 2004).
